Reference: PubChem BioAssay (NCI)
Several values for one entry are separate records, joined by “and”; a condition that tells them apart may be missing. Identical values can stand only once.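 Step 1: Grow cells in 96-well plates. Step 2: Expose to compound for 48 hours at 5 concentrations. Step 3: Interpolate endpoints linearly; if unreached, use highest concentration. Abbreviation: GI50, concentration required for 50% inhibition of growth. TGI: concentration producing complete growth inhibition.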 Where a SMILES comes first, the peptide text is derived from it. [ ]: non-standard residue; d: D form. The star is where a group is joined. Phe(4-NO2) = N[CH](Cc1ccc([N+](=O)[O-])cc1)C(=O)O; Boc = CC(C)(C)OC(=O)*; OtBu = CC(C)(C)O*

Experiments:
Test in all cases: NCI anticancer screen, dose series, 48 h
MOLT-4 leukemia = test system: MOLT-4 leukemia
HCC-2998 colon = test system: HCC-2998 colon
DMS 273 small cell lung = test system: DMS 273 small cell lung
HT29 colon = test system: HT29 colon
HCT-116 colon = test system: HCT-116 colon
LOX IMVI melanoma = test system: LOX IMVI melanoma
COLO 205 colon = test system: COLO 205 colon
K-562 leukemia = test system: K-562 leukemia
MDA-MB-435 = test system: MDA-MB-435
DU-145 prostate = test system: DU-145 prostate

Structure (SMILES)	TGI (MOLT-4 leukemia)	TGI (HCC-2998 colon)	TGI (DMS 273 small cell lung)	TGI (HT29 colon)	TGI (HCT-116 colon)	TGI (LOX IMVI melanoma)	TGI (COLO 205 colon)	TGI (K-562 leukemia)	TGI (MDA-MB-435) [µM]	TGI (DU-145 prostate) [µM]	GI50 (MOLT-4 leukemia)	GI50 (HCC-2998 colon)	GI50 (DMS 273 small cell lung)	GI50 (HT29 colon)	GI50 (HCT-116 colon)	GI50 (LOX IMVI melanoma)	GI50 (COLO 205 colon)	GI50 (K-562 leukemia)
C=C1C(=O)C[C@@]23CCC[C@@]12CC(O)C3 (stereo partly drawn)	> 80.7 µM	> 62.1 µM	45.8 µM	33.2 µM	44.5 µM	31.3 µM	41.1 µM	> 87 µM	–	–	–	–	–	–	–	–	–	–
COc1cc2cc3c4c(cc(OC)c(OC)c4c2cc1OC)CCN3C(=O)OCCBr	> 100 µM	> 100 µM	> 100 µM	> 100 µM	> 100 µM	> 100 µM	> 100 µM	–	–	–	–	–	–	–	–	–	–	–
COc1cc2c(c(OC)c1OC)-c1ccc(SC)c(=O)cc1[C@@H](NC(=O)c1ccc(C#N)cc1)CC2	> 53.8 µM	< 0.01 µM	> 46.3 µM	< 0.01 µM	12.6 µM	36.7 µM	< 0.01 µM	> 100 µM	–	–	–	–	–	–	–	–	–	–
CCN(CC)c1ccc(C(=C2C=CC(=[N+](CC)CC)C=C2)c2ccccc2)cc1	0.0383 µM	0.135 µM	0.134 µM	–	0.127 µM	0.105 µM	0.136 µM	0.0968 µM	–	–	–	–	–	–	–	–	–	–
CN(Cc1nc2c(N)nc(N)nc2nc1N)c1ccc(C(=O)NC(CCC(=O)O)C(=O)O)cc1 (stereo not drawn)	> 100 µM	> 100 µM	–	> 100 µM	> 100 µM	> 100 µM	> 100 µM	> 100 µM	> 100	> 100	–	–	–	–	–	–	–	–
CC1=CC(c2ccccc2)n2c(nc3cc4ccccc4cc32)N1 (stereo not drawn)	> 100 µM	> 100 µM	–	> 100 µM	> 100 µM	> 100 µM	> 100 µM	> 100 µM	> 100	> 100	–	–	–	–	–	–	–	–
COC1(OC)/C(=C(\N)C=O)NC(C)(C)N1O	> 100 µM	> 100 µM	–	> 100 µM	> 100 µM	> 100 µM	> 100 µM	> 100 µM	> 100	> 100	–	–	–	–	–	–	–	–
CCOc1ccc(NC(=S)/N=C/C(C(=O)Nc2ccccc2C)=C(\C)O)cc1	> 100 µM	> 100 µM	–	> 100 µM	> 100 µM	> 100 µM	> 100 µM	> 100 µM	> 100	> 100	–	–	–	–	–	–	–	–
COC(=O)C1(Cc2ccccc2)Cc2ccccc2C1=O (stereo not drawn)	90.9 µM	> 100 µM	–	> 100 µM	> 100 µM	> 100 µM	> 100 µM	> 100 µM	53.4	> 100	–	–	–	–	–	–	–	–
CCOc1cc(C=O)ccc1O	> 100 µM	> 100 µM	–	> 100 µM	> 100 µM	> 100 µM	> 100 µM	> 100 µM	> 100	> 100	–	–	–	–	–	–	–	–
Cc1c(-c2coc(-c3ccc(Cl)cc3)n2)c(=O)n(-c2ccccc2)n1C	> 100 µM	> 100 µM	> 100 µM	> 100 µM	> 100 µM	> 100 µM	> 100 µM	–	–	–	–	–	–	–	–	–	–	–
CCC1(O)CN(CCOC)[C@H]2C[C@@H]1C(=O)c1[nH]c3ccccc3c12 (stereo partly drawn)	> 100 µM	> 100 µM	–	> 100 µM	> 100 µM	> 100 µM	> 100 µM	> 100 µM	> 100	> 100	–	–	–	–	–	–	–	–
C/C=C\C(CC(=O)O)CC(=O)NCCC1CN(S(=O)(=O)C(F)(F)F)c2ccccc21 (stereo not drawn)	> 100 µM	> 100 µM	–	> 100 µM	> 100 µM	> 100 µM	> 100 µM	> 100 µM	> 100	> 100	–	–	–	–	–	–	–	–
CC(=O)Nc1ccc(C(=O)N2N=C(C)/C(=C/c3cccc(O)c3)C2=O)cc1	> 100 µM	> 100 µM	> 100 µM	> 100 µM	> 100 µM	> 100 µM	> 100 µM	> 100 µM	–	–	–	–	–	–	–	–	–	–
COC(=O)C(Cc1ccc([N+](=O)[O-])cc1)NC(=O)C(CC(=O)OC(C)(C)C)NC(=O)OC(C)(C)C (stereo not drawn) (Boc-Asp(OtBu)-[Phe(4-NO2)]-OMe; configuration not given here)	> 100 µM	> 100 µM	–	> 100 µM	> 100 µM	49 µM	> 100 µM	> 100 µM	> 100	> 100	–	–	–	–	–	–	–	–
CC(=O)c1c(O)c(C)c(O)c2c1OC1=CC(=O)C(C(C)=O)C(=O)C12C (stereo not drawn)	13.5 µM and 59.4 µM	17.1 µM and 22.8 µM	11.9 µM and 22.5 µM	29.3 µM and 70.2 µM	45.7 µM and 66.3 µM	33.3 µM and 37.9 µM	17.4 µM and 54.8 µM	24.3 µM and 84.8 µM	–	–	3.37 µM and 20.1 µM	6.08 µM and 13.7 µM	3.74 µM and 7.53 µM	6.28 µM and 25.7 µM	10.9 µM and 22.3 µM	5.53 µM and 12.6 µM	4.71 µM and 19.9 µM	4.62 µM and 23 µM
N#Cc1nnc2c3c(-c4ccc(Cl)cc4)c(C#N)c(=O)[nH]c3nn2c1N	14.1 µM	12.7 µM	–	21.2 µM	15.9 µM	8.01 µM	28.4 µM	> 41.6 µM	26.8	16.8	–	–	–	–	–	–	–	–

Structure (SMILES)	TGI (MOLT-4 leukemia)	TGI (HCC-2998 colon)	TGI (DMS 273 small cell lung)	TGI (HT29 colon)	TGI (HCT-116 colon)	TGI (LOX IMVI melanoma)	TGI (COLO 205 colon)	TGI (K-562 leukemia)	TGI (MDA-MB-435) [µM]	TGI (DU-145 prostate) [µM]	GI50 (MOLT-4 leukemia)	GI50 (HCC-2998 colon)	GI50 (DMS 273 small cell lung)	GI50 (HT29 colon)	GI50 (HCT-116 colon)	GI50 (LOX IMVI melanoma)	GI50 (COLO 205 colon)	GI50 (K-562 leukemia)
Fc1nc(F)nc(-c2c3ccccc3c3n2CCS3)n1	–	> 100 µM	> 100 µM	> 100 µM	> 100 µM	> 100 µM	> 100 µM	> 100 µM	–	–	–	–	–	–	–	–	–	–
COc1ccc(CC2C(=O)NC(C)C(=O)N(C)C3Cc4ccc(cc4)Oc4cc(ccc4O)CC(C(=O)NC(C)C(=O)NC(C)C(=O)N2C)N(C)C3=O)cc1 (stereo not drawn)	–	0.0168 µM and 0.0292 µM	0.0532 µM	0.0347 µM and 0.0161 µM and 0.152 µM	0.112 µM and 0.0554 µM	–	0.0745 µM	2.01 µM	–	0.00288	< 0.0001 µM	< 0.0001 µM	–	< 0.0001 µM	< 0.0001 µM	< 0.0001 µM	0.000278 µM	< 0.0001 µM
O=C(NCCCCl)c1c(O)c2ccccc2[nH]c1=O	> 100 µM	> 100 µM	–	> 100 µM	> 100 µM	> 100 µM	> 100 µM	> 100 µM	> 100	> 100	–	–	–	–	–	–	–	–
C=C(CCC(C(=O)O)C1CCC2(C)C3=C(CCC12C)C1(C)CCC(O)C(C)(C)C1CC3)C(C)C (stereo not drawn)	> 100 µM	> 100 µM	–	> 100 µM	> 100 µM	89 µM	> 100 µM	43.3 µM	> 100	> 100	–	–	–	–	–	–	–	–
COc1ccc(NC(=O)C2=C(SC)C(=O)N=C2N)cc1	> 100 µM	> 100 µM	–	> 100 µM	> 100 µM	> 100 µM	> 100 µM	> 100 µM	> 100	> 100	–	–	–	–	–	–	–	–
O=C(CCN1CCCCC1CO)Nc1ccc2c(c1)C(=O)c1ccc(NC(=O)CCN3CCCCC3CO)cc1C2=O (stereo not drawn)	35.7 µM	20.8 µM	19.2 µM	31.6 µM	19.6 µM	20.8 µM	21.7 µM	46.1 µM	–	–	–	–	–	–	–	–	–	–
O=C1O/C(=C\c2ccc(O)cc2)C(c2ccc(O)c(Cl)c2)=C1Br	49 µM	23.6 µM	–	29.9 µM	23.6 µM	61.2 µM	33.4 µM	10.5 µM	53.2	27.6	–	–	–	–	–	–	–	–
COc1cc(O)c2c(c1)C(O)C(O)CC1OC1C(=O)/C=C/CC(C)OC2=O (stereo not drawn)	17.2 µM	16.7 µM	–	10 µM	12.2 µM	16.2 µM	16.1 µM	13.6 µM	8.31	> 72.2	–	–	–	–	–	–	–	–
CCOP(=O)(OCC)C(F)(F)CC1CCCCC1	> 10 µM	> 10 µM	–	> 10 µM	> 10 µM	> 10 µM	> 10 µM	> 10 µM	> 10	> 10	–	–	–	–	–	–	–	–
C/C(=N\O)c1ccc(Nc2c3ccccc3nc3occc23)cc1	> 21.3 µM	6.35 µM	–	0.72 µM	2.52 µM	> 50 µM	0.65 µM	> 50 µM	0.0781	> 15.3	–	–	–	–	–	–	–	–
Cc1cc(S(=O)(=O)NC(=NCC(=O)NN)NN)c(S)cc1Cl	> 10 µM	> 10 µM	–	> 10 µM	> 10 µM	> 10 µM	> 10 µM	> 10 µM	> 10	> 10	–	–	–	–	–	–	–	–
COc1cc2c(cc1OC)C1Cc3ccccc3CN1CCC2 (stereo not drawn)	> 100 µM	> 100 µM	–	> 100 µM	> 100 µM	> 100 µM	> 100 µM	> 100 µM	> 100	> 100	–	–	–	–	–	–	–	–
O=C(CCCN1CCc2[nH]c3cc(F)ccc3c2C1)c1ccc(F)cc1	29 µM	11.9 µM	–	20.5 µM	24.2 µM	17.5 µM	17.1 µM	22.5 µM	25.6	26.1	–	–	–	–	–	–	–	–
CSc1nc2c(ncn2C2OCC(O)C(O)C2O)c(=O)[nH]1 (stereo not drawn)	> 100 µM	> 100 µM	> 100 µM	> 100 µM	> 100 µM	> 100 µM	> 100 µM	> 100 µM	–	–	–	–	–	–	–	–	–	–
C[C@@H](C[C@@H](O)[C@H](O)C(C)(C)O)[C@H]1CC=C2[C@]3(C)[C@H](O)C[C@H]4C(C)(C)[C@H](O)CC[C@]4(C)[C@H]3CC[C@@]21C	29.6 µM	37.9 µM	–	26.2 µM	34.7 µM	30 µM	28.5 µM	41.7 µM	31.4	30.8	–	–	–	–	–	–	–	–
NC(CO)c1ccccc1 (stereo not drawn)	> 100 µM	> 100 µM	> 100 µM	> 100 µM	> 100 µM	> 100 µM	–	–	–	–	–	–	–	–	–	–	–	–
